Reference: ChEMBL document CHEMBL2434949, “Evaluation of licorice flavonoids as protein tyrosine phosphatase 1B inhibitors” (Bioorg Med Chem Lett, 2013)
The source made the active and inactive calls. The rule behind the calls is not given here.

Tests used:
[1] = target: T1, Tyrosine-protein phosphatase non-receptor type 1 (Homo sapiens) (UniProt P18031); assay: Inhibition of PTP1B (unknown origin) using p-nitrophenyl phosphate as substrate at 100 uM
T1 sequence (whole entry): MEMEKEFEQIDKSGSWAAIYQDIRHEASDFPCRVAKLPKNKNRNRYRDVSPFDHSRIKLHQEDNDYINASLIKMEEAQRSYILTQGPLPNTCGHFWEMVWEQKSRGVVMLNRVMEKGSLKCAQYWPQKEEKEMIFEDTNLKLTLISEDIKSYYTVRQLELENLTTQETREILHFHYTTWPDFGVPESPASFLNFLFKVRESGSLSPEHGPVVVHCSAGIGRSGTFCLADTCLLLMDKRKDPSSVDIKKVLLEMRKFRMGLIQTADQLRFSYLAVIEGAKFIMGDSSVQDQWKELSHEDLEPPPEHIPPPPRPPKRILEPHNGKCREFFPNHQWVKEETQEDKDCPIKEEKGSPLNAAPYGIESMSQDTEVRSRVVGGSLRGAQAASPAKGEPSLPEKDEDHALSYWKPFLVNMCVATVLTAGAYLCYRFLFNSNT

[2] = target: T2, Tyrosine-protein phosphatase non-receptor type 1 (Homo sapiens, UniProt P18031); assay: Inhibition of PTP1B (unknown origin) using p-nitrophenyl phosphate as substrate
T2 sequence (P18031 whole entry): T1 sequence (whole entry)

[3] = target: T3, Tyrosine-protein phosphatase non-receptor type 2 (Homo sapiens) (UniProt P17706); assay: Inhibition of TCPTP (unknown origin) at 100 uM
T3 sequence (whole entry): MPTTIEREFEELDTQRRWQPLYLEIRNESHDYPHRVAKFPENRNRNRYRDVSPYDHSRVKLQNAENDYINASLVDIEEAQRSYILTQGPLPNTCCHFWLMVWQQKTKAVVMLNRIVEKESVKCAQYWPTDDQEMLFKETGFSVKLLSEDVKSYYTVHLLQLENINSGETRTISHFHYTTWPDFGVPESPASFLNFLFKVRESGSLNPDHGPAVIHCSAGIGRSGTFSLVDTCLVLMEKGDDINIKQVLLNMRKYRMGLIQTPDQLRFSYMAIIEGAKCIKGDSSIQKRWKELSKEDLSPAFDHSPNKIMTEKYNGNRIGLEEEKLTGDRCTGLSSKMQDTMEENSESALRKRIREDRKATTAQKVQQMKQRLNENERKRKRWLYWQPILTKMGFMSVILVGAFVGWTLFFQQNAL

[4] = target: T1, Tyrosine-protein phosphatase non-receptor type 1 (Homo sapiens)
Description: Competitive inhibition of PTP1B (unknown origin) using p-nitrophenyl phosphate as substrate by Lineweaver-Burk plot analysis

[5] = target: Dual specificity protein phosphatase 3 (Homo sapiens) (UniProt P51452); assay: Inhibition of VHR (unknown origin) at 100 uM
Chain of Dual specificity protein phosphatase 3 (Homo sapiens) (P51452 whole entry, looked up): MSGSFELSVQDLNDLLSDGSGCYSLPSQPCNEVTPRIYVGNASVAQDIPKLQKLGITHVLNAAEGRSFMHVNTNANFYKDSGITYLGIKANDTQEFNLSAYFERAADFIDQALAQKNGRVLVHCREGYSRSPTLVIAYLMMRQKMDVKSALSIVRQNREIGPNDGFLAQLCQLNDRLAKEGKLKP

[6] = target: T1, Tyrosine-protein phosphatase non-receptor type 1 (Homo sapiens); assay: Non-competitive inhibition of PTP1B (unknown origin) using p-nitrophenyl phosphate as substrate by Lineweaver-Burk plot analysis
[7] = target: T1, Tyrosine-protein phosphatase non-receptor type 1 (Homo sapiens); assay: Inhibition of PTP1B in human HepG2 cells assessed as increase of insulin-induced Akt phosphorylation at Ser473 at 20 to 100 uM after 5 mins by Western blotting; format: cell-based
[8] = target: T1, Tyrosine-protein phosphatase non-receptor type 1 (Homo sapiens); assay: Mixed type inhibition of PTP1B (unknown origin) using p-nitrophenyl phosphate as substrate by Lineweaver-Burk plot analysis

For COc1ccc2c(c1)O[C@H]1c3ccc(O)c(CC=C(C)C)c3OC[C@@H]21, the inhibition [1] was < 50%.
COc1ccc(-c2coc3cc(O)c(OC)cc3c2=O)cc1 was tested, and the inhibition [1] was < 50%.
In the case of CC(C)=CCc1c(O)ccc2c1oc(=O)c1c3ccc(O)cc3oc21, the inhibition [1] is reported as < 50%.
For COc1c(/C=C/C(=O)c2ccc(O)cc2)ccc2c1CC(C(C)(C)O)O2 (centres undefined), the inhibition [1] was < 50%.
CC(C)=CCc1cc([C@H]2Oc3c(ccc(O)c3CC=C(C)C)C(=O)[C@@H]2O)ccc1O gave an IC50 [2] of 75.1 µM.
O=c1c(O[C@@H]2O[C@H](CO)[C@@H](O)[C@H](O)[C@H]2O)c(-c2ccc(O)cc2)oc2cc(O)cc(O)c12 was tested, and the inhibition [1] was < 50%.
CC(C)=CCc1c(O)ccc2c1O[C@H](c1ccc3c(c1)CC(O)C(C)(C)O3)CC2=O (some centres undefined) showed an IC50 [2] of 52.2 µM.
With CC(C)=CCc1c(O)ccc2c1O[C@H](c1ccc3c(c1)C=CC(C)(C)O3)CC2=O the inhibition [1] was < 50%.
CCCCCCCCCCCCCCCC(=O)C1=C(O)[C@@H](CO)OC1=O gave an IC50 [2] of 4.6 µM.
With CC(C)=CCc1c(O)ccc2c1O/C(=C\c1ccc(O)c(O)c1)C2=O [LICOAGROAURONE] the inhibition [3] was 4%, the IC50 [2] was 23.9 µM and the Kic [4] was 24 µM. For the same compound, the inhibition [5] was 50%.
With O=C(/C=C/c1ccc(O[C@@H]2O[C@H](CO)[C@@H](O)[C@H](O)[C@H]2O)cc1)c1ccc(O)cc1O the inhibition [1] was < 50%.
With CC(C)=CCc1cc(C(=O)CC(=O)c2cc(CC=C(C)C)c(O)cc2O)ccc1O the IC50 [2] was 32.6 µM.
For CC(C)=CCc1c(O)ccc2c1O[C@H](c1ccc3c(c1)C(O)C(O)C(C)(C)O3)CC2=O (some centres undefined), the inhibition [1] was < 50%.
COc1cc(O)ccc1/C=C/C(=O)c1ccc(O)cc1 was tested, and the inhibition [1] was < 50%.
For CC(C)=CCc1cc([C@@H]2CC(=O)c3ccc(O)cc3O2)ccc1O, the inhibition [1] was < 50%.
For COc1c(CC=C(C)C)c(O)cc(O)c1-c1oc2cc(O)ccc2c1C, the inhibition [3] was 4% and the inhibition [5] was 35%.
For CC1(C)C=Cc2c(ccc(C(=O)/C=C/c3ccc(O)cc3)c2O)O1, the IC50 [2] was 74.1 µM.
Work on CC(C)=CCc1cc(C[C@@H](O)C(=O)c2cc(CC=C(C)C)c(O)cc2O)ccc1O yielded an IC50 [2] of 90.5 µM.
With O=c1cc(-c2ccc(O)cc2)oc2cc(O)ccc12 the inhibition [1] was < 50%.
COc1c(/C=C/C(=O)c2ccc(O)cc2)ccc(O)c1CC=C(C)C showed an IC50 [2] of 57 µM.
With CC1(C)C=Cc2cc(C(=O)CC(=O)c3ccc(O)cc3)c(O)cc2O1 the inhibition [1] was < 50%.
CC1(C)C=Cc2c(ccc3c2OC[C@@H](c2ccc(O)c4c2OC(C)(C)C=C4)C3)O1 was tested, and the inhibition [1] was < 50%.
Compound COc1c([C@H]2c3c(cc(O)c(O)c3OC)C=C(C(=O)c3ccc(O)cc3)[C@H]2C(=O)c2ccc(O)cc2)ccc(O)c1O (relative stereo) has an IC50 [2] of 36.2 µM.
In the case of CC1(C)C=Cc2cc([C@@H]3CC(=O)c4ccc5c(c4O3)C=CC(C)(C)O5)ccc2O1, the inhibition [1] is reported as < 50%.
CC(C)=CCc1cc(C(=O)C2(c3cc(O)c(O)cc3/C=C3\Oc4c(ccc(O)c4CC=C(C)C)C3=O)Oc3cc(O)c(CC=C(C)C)cc3C2=O)ccc1O (centres undefined) [LICOAGRONE] gave an inhibition [3] of 4%, a Kiuc [6] of 6.3 µM and an IC50 [2] of 6 µM. The Activity [7] was “Active” and the inhibition [5] was > 70%.
For O=c1cc(-c2ccc(O)cc2)oc2c([C@@H]3O[C@H](CO)[C@@H](O)[C@H](O)[C@H]3O)c(O)c([C@@H]3O[C@H](CO)[C@@H](O)[C@H](O)[C@H]3O)c(O)c12, the inhibition [1] was < 50%.
CC1(C)C=Cc2c(ccc(-c3coc4cc(O)ccc4c3=O)c2O)O1 [GLABRONE] was tested, and the IC50 [2] was 66.3 µM.
With O=c1cc(-c2ccc(O)cc2)oc2c([C@@H]3O[C@H](CO)[C@@H](O)[C@H](O)[C@H]3O)c(O)c([C@@H]3OC[C@H](O)[C@H](O)[C@H]3O)c(O)c12 the inhibition [1] was < 50%.
For COc1ccc([C@@H]2COc3c(ccc4c3C=CC(C)(C)O4)C2)c(O)c1, the inhibition [1] was < 50%.
Work on CC1(C)C=Cc2cc(/C=C/C(=O)c3ccc(O)cc3O)ccc2O1 yielded an IC50 [2] of 44.3 µM.
For COc1c(/C=C/C(=O)c2ccc(O)c(O)c2)ccc(O)c1CC=C(C)C, the IC50 [2] was 59.5 µM.
CC1(C)C=Cc2c(ccc3c2OC[C@@H](c2ccc(O)cc2O)C3)O1 [GLABRIDIN] showed an IC50 [2] of 73.4 µM.
COc1cc(O)cc2occ(-c3cc(O)c(O)c(CC=C(C)C)c3)c(=O)c12 was tested, and the inhibition [3] was 4% and the inhibition [5] was > 70%.
For CC(C)=CCc1cc(-c2cc(=O)c3ccc(O)cc3o2)ccc1O, the inhibition [1] was < 50%.
In the case of O=C1C[C@@H](c2ccc(O[C@@H]3O[C@H](CO)[C@@H](O)[C@H](O)[C@H]3O)cc2)Oc2cc(O)ccc21, the inhibition [1] is reported as < 50%.
CC(C)=CCc1cc([C@@H]2CC(=O)c3c(O)cc(O)c(CC=C(C)C)c3O2)ccc1O [LESPEDEZAFLAVANONE B] showed an IC50 [2] of 62.4 µM.
O=C1C[C@@H](c2ccc(O)cc2)Oc2cc(O)ccc21 was tested, and the inhibition [1] was < 50%.
In the case of COc1ccc(-c2coc3cc(O)c(OC)cc3c2=O)cc1O [ODORATIN], the IC50 [2] is reported as 70 µM.
With O=c1c(O[C@@H]2O[C@H](CO)[C@@H](O)[C@H](O)[C@H]2O)c(-c2ccc(O)c(O)c2)oc2cc(O)cc(O)c12 the inhibition [1] was < 50%.
For CC(C)=CCc1c(O)ccc(C(=O)/C=C/c2ccc(O)cc2)c1O [ISOBAVACHALCONE], the inhibition [3] was 4%, the IC50 [2] was 27.3 µM and the inhibition [5] was > 70%. For the same compound, the inhibition [8] was “Active”.
In the case of COc1cc(O[C@@H]2O[C@H](CO)[C@@H](O)[C@H](O)[C@H]2O)c(-c2coc3cc(O)c(OC)cc3c2=O)cc1O, the inhibition [1] is reported as < 50%.
CC(C)=CCc1cc([C@@H]2CC(=O)c3ccc(O)c(CC=C(C)C)c3O2)ccc1O [GLABROL] gave an IC50 [2] of 37.5 µM.
COc1c(/C=C/C(=O)c2ccc(O)cc2)ccc(O)c1O was tested, and the inhibition [1] was < 50%.
CC(C)=CCc1cc([C@]23Oc4cc(O)c(CC=C(C)C)cc4C(=O)[C@H]2[C@H]2c4ccc(O)cc4O[C@@H]4Oc5c(ccc(O)c5CC=C(C)C)[C@@]42O3)ccc1O [LICOAGRODIN] showed an inhibition [3] of 4%, an IC50 [2] of 11.5 µM and an inhibition [5] of 50%. For the same compound, the inhibition [8] was “Active”.
